Assay results published in patent publication US6051557A, “Methods of enhancing functioning of the upper gastrointestinal tract” (1149336 Ontario Inc., priority 1998, dated 2000).

How the values were obtained:
Assay type in all cases: in vivo
[1] = system: mucosal epithelium and muscle layer of the esophagus; test: BrdU cell proliferation in mouse esophagus; conditions: female CD1 mice, 2.5 μg s.c. twice daily, 50 hr period, vs PBS
Excerpt: In this experiment, the effect of GLP-2 on cell proliferation of the mucosal epithelium and muscle layer of the esophagus was examined.
Female CD1 mice (6 weeks of age, approx. 25 g, Charles River) were housed in plastic bottom, wire lid cages and maintained on a 12 hr light/dark cycle and allowed chow and water ad libitum. The mice were weighed using a Mettler PJ300 scale and randomly allocated to either the control group (phosphate buffer saline injection ("PBS")) or the treatment group (human [Gly^2 ]GLP-2 injection). Each control or treatment group consisted of 2 mice housed together in 1 cage.
The female CD1 mice were treated (subcutaneously) with either human [Gly^2 ]GLP-2 2.5 μg or PBS alone, twice daily (8 a.m. and 6 p.m.) for 2 days prior to the bromodeoxyuridine ("BrdU") injection (50 ug/g body weight, in 0.5 ml). The mice received a total of 5 injections of either human [Gly^2 ]GLP-2 or saline over the previous 50 hours. Mice were fasted 21 hours before sacrifice. The mice were sacrificed 2 hours after receiving the BrdU injection. Upon sacrifice, sections of distal esophagus (the last 2 cm of esophagus adjacent to the gastroduodenal junction) were taken for histological analysis.
The esophageal tissues were fixed in 10% buffered formalin for over 24 hours and then placed in 70% alcohol prior to processing. […]

esophagus = test: total protein content of mouse esophagus (modified Bradford assay); conditions: female CD1 mice, 2.5 ug s.c. twice daily for 10 days, vs PBS
Experimental: In this experiment, the effect of human [Gly^2 ]GLP-2 on protein synthesis in the mouse esophagus was examined. Female CD1 mice (6 weeks old) were housed and fed as described in Example 1. Two groups of mice (n=5 per group) were treated twice daily (subcutaneously) with either 0.5 ml PBS alone (control) or 2.5 ug in 0.5 ml PBS for 10 days. Following treatment, mice were anesthetized with CO2 and sacrificed for analysis. One (1) cm segments of esophagus tissue, between 2-4 cm proximal to the gastroduodenal junction, were harvested for analysis of total cellular protein. The 1 cm esophageal segments were placed in 1 ml of PBS and homogenized using a Polytron. Aliquots of the homogenate were taken for protein determination of protein content using the modified Bradford assay (BIORAD).

[2] = system: indomethacin induced mucosal epithelial damage; test: indomethacin induced gastroenterocolitis in mice; conditions: 0.75 μg s.c. twice daily
Excerpt: In this experiment, the prophylactic and therepeutic effect of GLP-2 on indomethacin induced mucosal epithelial damage was studied.
GLP-2 administration to mice and rats stimulates mucosal growth in both the small and large intestine via activation of crypt cell proliferation and inhibition of enterocyte apoptosis. To address the possibility that GLP-2 may be useful for the therapeutic and/or prophylactic treatment of mucosal epithelial damage, we have studied the use of a novel human GLP-2 analog, h[Gly^2 ]-GLP-2, in mice with experimental indomethacin induced gastroenterocolitis.
Six to eight week old female CD1 mice (approximately 22-28 g, Charles River) were housed in plastic bottom, wire lid cages and maintained on a 12 hr light/dark cycle and allowed chow and water ad libitum throughout the study. The day prior to commencing the experiment, mice were weighed using a Mettler PJ300 scale and randomly allocated to a treatment group. Each treatment group consisted of 5 mice housed together. Subcutaneous injections of PBS or h[Gly^2 ]-GLP-2 peptide were given in the right hind quarter twice a day at 9 am and 7 pm. Injections started 4 days before indomethacin administration. Mice were fasted the night prior to receiving the first dose of indomethacin.
Mice were sacrificed between 9 am and 5 pm. […] Small and large bowel length were also measured. […]

stomach = stomach mass after oral administration in drinking water; conditions: female CD1 mice, approx. 100 μg per day in drinking water, 12 days, p<0.05 vs normal drinking water
Experimental: In this experiment, the effect of GLP-2 on the stomach mass was examined. Female CD1 mice (6 weeks old) were treated with human [[…] ]GLP-2 by oral administration in drinking water. The drinking water contained 4.3 μg/ml of human [[…] ]GLP-2 and was prepared fresh daily. Each mouse received approximately 100 μg of human [[…] ]GLP-2 per day. Following 12 days of treatment the mice were fasted for 24 hours, anesthetized with CO2 and sacrificed. The stomach of each mouse was removed and weighed.

CC[C@H](C)[C@H](NC(=O)[C@H](Cc1ccccc1)NC(=O)[C@H](CC(=O)O)NC(=O)[C@H](CCCNC(=N)N)NC(=O)[C@H](C)NC(=O)[C@H](C)NC(=O)[C@H](CC(C)C)NC(=O)[C@H](CC(N)=O)NC(=O)[C@H](CC(=O)O)NC(=O)[C@H](CC(C)C)NC(=O)[C@@H](NC(=O)[C@@H](NC(=O)[C@H](CC(N)=O)NC(=O)[C@H](CCSC)NC(=O)[C@H](CCC(=O)O)NC(=O)[C@H](CC(=O)O)NC(=O)[C@H](CO)NC(=O)[C@H](Cc1ccccc1)NC(=O)[C@H](CO)NC(=O)CNC(=O)[C@H](CC(=O)O)NC(=O)CNC(=O)[C@@H](N)Cc1c[nH]cn1)[C@@H](C)O)[C@@H](C)CC)C(=O)N[C@@H](CC(N)=O)C(=O)N[C@@H](Cc1c[nH]c2ccccc12)C(=O)N[C@@H](CC(C)C)C(=O)N[C@H](C(=O)N[C@@H](CCC(N)=O)C(=O)N[C@H](C(=O)N[C@@H](CCCCN)C(=O)N[C@H](C(=O)N[C@H](C(=O)N[C@@H](CC(=O)O)C(=O)O)[C@@H](C)O)[C@@H](C)CC)[C@@H](C)O)[C@@H](C)CC [human [Gly^2]GLP-2]
cellular proliferation of the mucosal epithelium of the esophagus (number of BrDU-positive cells) [1]: significant increases
cellular proliferation of the muscle layer of the esophagus (number of BrDU-positive cells) [1]: significant increases
protein synthesis (total protein content) in esophagus tissue (esophagus): increase
majority of parameters assessed, especially markers of epithelial damage/inflammation ([2]; indomethacin-treated mice, vs saline): significantly improved
survival ([2]; treatment groups II-V, indomethacin 7 mg/kg, saline-treated controls 45-50%): 75-95%
weights of the stomachs (stomach): significantly increase
